Key:
[1] = Formation of 1,5-cz-[Ln(Lig)] from Lig and Ln^III ions (metal dependent click-zip), MOPS/NaOH buffer pH 7.0, analytical HPLC (Charts 1, 2); conditions: MOPS/NaOH buffer pH 7.0
[2] = Formation of 1,5-cz-[M(Lig)] from Lig and M^III ions (metal dependent click-zip) (Charts 4, 5); type: physicochemical; conditions: MOPS/NaOH buffer pH 7.0; for conversion to 1,5-cz-[M(Lig)], Sc^III / conversion to 1,5-cz-[M(Lig)], Y^III: TD728, TD827 in 50% i-PrOH; for conversion to 1,5-cz-[M(Lig)], Y^III: TD714 sum of two diastereoisomers

C#Cc1cccc(CN2CCN(CC(=O)O)CCN(Cc3cc(C(=O)OC)cc(CN=[N+]=[N-])n3)CCN(CC(=O)O)CC2)n1 [TD1092]
conversion to 1,5-cz-[Ln(Lig)] with hydrolysed group in the side chain, Ce^III ([1]; after 1 week at 80° C.): 37% | conversion to 1,5-cz-[Ln(Lig)], Ce^III ([1]; after 1 week at 80° C.): 0% | conversion to 1,5-cz-[Ln(Lig)] with hydrolysed group in the side chain, Ce^III ([1]; after 1 hour at 80° C.): 0% | conversion to 1,5-cz-[Ln(Lig)], Ce^III ([1]; after 1 hour at 80° C.): 0% | conversion to 1,5-cz-[Ln(Lig)] with hydrolysed group in the side chain, Dy^III ([1]; after 1 week at 80° C.): 94% | conversion to 1,5-cz-[Ln(Lig)], Dy^III ([1]; after 1 week at 80° C.): 0% | conversion to 1,5-cz-[Ln(Lig)] with hydrolysed group in the side chain, Dy^III ([1]; after 1 hour at 80° C.): 8% | conversion to 1,5-cz-[Ln(Lig)], Dy^III ([1]; after 1 hour at 80° C.): 5% | conversion to 1,5-cz-[Ln(Lig)] with hydrolysed group in the side chain, Er^III ([1]; after 1 week at 80° C.): 94% | conversion to 1,5-cz-[Ln(Lig)], Er^III ([1]; after 1 week at 80° C.): 0% | conversion to 1,5-cz-[Ln(Lig)] with hydrolysed group in the side chain, Er^III ([1]; after 1 hour at 80° C.): 19% | conversion to 1,5-cz-[Ln(Lig)], Er^III ([1]; after 1 hour at 80° C.): 12% | conversion to 1,5-cz-[Ln(Lig)] with hydrolysed group in the side chain, Eu^III ([1]; after 1 week at 80° C.): 91% | conversion to 1,5-cz-[Ln(Lig)], Eu^III ([1]; after 1 week at 80° C.): 0% | conversion to 1,5-cz-[Ln(Lig)] with hydrolysed group in the side chain, Eu^III ([1]; after 1 hour at 80° C.): 2% | conversion to 1,5-cz-[Ln(Lig)], Eu^III ([1]; after 1 hour at 80° C.): 2% | conversion to 1,5-cz-[Ln(Lig)] with hydrolysed group in the side chain, Gd^III ([1]; after 1 week at 80° C.): 92% | conversion to 1,5-cz-[Ln(Lig)], Gd^III ([1]; after 1 week at 80° C.): 0% | conversion to 1,5-cz-[Ln(Lig)] with hydrolysed group in the side chain, Gd^III ([1]; after 1 hour at 80° C.): 3% | conversion to 1,5-cz-[Ln(Lig)], Gd^III ([1]; after 1 hour at 80° C.): 2% | conversion to 1,5-cz-[Ln(Lig)] with hydrolysed group in the side chain, Ho^III ([1]; after 1 week at 80° C.): 94% | conversion to 1,5-cz-[Ln(Lig)], Ho^III ([1]; after 1 week at 80° C.): 0% | conversion to 1,5-cz-[Ln(Lig)] with hydrolysed group in the side chain, Ho^III ([1]; after 1 hour at 80° C.): 13% | conversion to 1,5-cz-[Ln(Lig)], Ho^III ([1]; after 1 hour at 80° C.): 7% | conversion to 1,5-cz-[Ln(Lig)] with hydrolysed group in the side chain, La^III ([1]; after 1 week at 80° C.): 40% | conversion to 1,5-cz-[Ln(Lig)], La^III ([1]; after 1 week at 80° C.): 0% | conversion to 1,5-cz-[Ln(Lig)] with hydrolysed group in the side chain, La^III ([1]; after 1 hour at 80° C.): 0% | conversion to 1,5-cz-[Ln(Lig)], La^III ([1]; after 1 hour at 80° C.): 0% | conversion to 1,5-cz-[Ln(Lig)] with hydrolysed group in the side chain, Lu^III ([1]; after 1 week at 80° C.): 97% | conversion to 1,5-cz-[Ln(Lig)], Lu^III ([1]; after 1 week at 80° C.): 0% | conversion to 1,5-cz-[Ln(Lig)] with hydrolysed group in the side chain, Lu^III ([1]; after 1 hour at 80° C.): 30% | conversion to 1,5-cz-[Ln(Lig)], Lu^III ([1]; after 1 hour at 80° C.): 26% | conversion to 1,5-cz-[Ln(Lig)] with hydrolysed group in the side chain, Nd^III ([1]; after 1 week at 80° C.): 73% | conversion to 1,5-cz-[Ln(Lig)], Nd^III ([1]; after 1 week at 80° C.): 0% | conversion to 1,5-cz-[Ln(Lig)] with hydrolysed group in the side chain, Nd^III ([1]; after 1 hour at 80° C.): 0% | conversion to 1,5-cz-[Ln(Lig)], Nd^III ([1]; after 1 hour at 80° C.): 1% | conversion to 1,5-cz-[Ln(Lig)] with hydrolysed group in the side chain, Pr^III ([1]; after 1 week at 80° C.): 62% | conversion to 1,5-cz-[Ln(Lig)], Pr^III ([1]; after 1 week at 80° C.): 0% | conversion to 1,5-cz-[Ln(Lig)] with hydrolysed group in the side chain, Pr^III ([1]; after 1 hour at 80° C.): 0% | conversion to 1,5-cz-[Ln(Lig)], Pr^III ([1]; after 1 hour at 80° C.): 0% | conversion to 1,5-cz-[Ln(Lig)] with hydrolysed group in the side chain, Sm^III ([1]; after 1 week at 80° C.): 88% | conversion to 1,5-cz-[Ln(Lig)], Sm^III ([1]; after 1 week at 80° C.): 0% | conversion to 1,5-cz-[Ln(Lig)] with hydrolysed group in the side chain, Sm^III ([1]; after 1 hour at 80° C.): 2% | conversion to 1,5-cz-[Ln(Lig)], Sm^III ([1]; after 1 hour at 80° C.): 1% | conversion to 1,5-cz-[Ln(Lig)] with hydrolysed group in the side chain, Tb^III ([1]; after 1 week at 80° C.): 93% | conversion to 1,5-cz-[Ln(Lig)], Tb^III ([1]; after 1 week at 80° C.): 0% | conversion to 1,5-cz-[Ln(Lig)] with hydrolysed group in the side chain, Tb^III ([1]; after 1 hour at 80° C.): 6% | conversion to 1,5-cz-[Ln(Lig)], Tb^III ([1]; after 1 hour at 80° C.): 3% | conversion to 1,5-cz-[Ln(Lig)] with hydrolysed group in the side chain, Tm^III ([1]; after 1 week at 80° C.): 95% | conversion to 1,5-cz-[Ln(Lig)], Tm^III ([1]; after 1 week at 80° C.): 0% | conversion to 1,5-cz-[Ln(Lig)] with hydrolysed group in the side chain, Tm^III ([1]; after 1 hour at 80° C.): 26% | conversion to 1,5-cz-[Ln(Lig)], Tm^III ([1]; after 1 hour at 80° C.): 19% | conversion to 1,5-cz-[Ln(Lig)] with hydrolysed group in the side chain, Yb^III ([1]; after 1 week at 80° C.): 96% | conversion to 1,5-cz-[Ln(Lig)], Yb^III ([1]; after 1 week at 80° C.): 0% | conversion to 1,5-cz-[Ln(Lig)] with hydrolysed group in the side chain, Yb^III ([1]; after 1 hour at 80° C.): 30% | conversion to 1,5-cz-[Ln(Lig)], Yb^III ([1]; after 1 hour at 80° C.): 24% | conversion to 1,5-cz-[Ln(Lig)] with hydrolysed group in the side chain, Sc^III ([2]; 1 week at 80° C.): 17% | conversion to 1,5-cz-[Ln(Lig)] with hydrolysed group in the side chain, Y^III ([2]; 1 week at 80° C.): 95% | conversion to 1,5-cz-[M(Lig)], Sc^III ([2]; 1 week at 80° C.): 0% | conversion to 1,5-cz-[M(Lig)], Y^III ([2]; 1 week at 80° C.): 0% | conversion to 1,5-cz-[Ln(Lig)] with hydrolysed group in the side chain, Sc^III ([2]; 1 hour at 80° C.): 0% | conversion to 1,5-cz-[Ln(Lig)] with hydrolysed group in the side chain, Y^III ([2]; 1 hour at 80° C.): 12% | conversion to 1,5-cz-[M(Lig)], Sc^III ([2]; 1 hour at 80° C.): 1% | conversion to 1,5-cz-[M(Lig)], Y^III ([2]; 1 hour at 80° C.): 6%

Source: patent US20250147039A1, “Compounds for complexation of rare earth elements and/or s-, p-, d- block metals, their coordination compounds, peptide conjugates, method of their preparation and use thereof” (USTAV ORGANICKE CHEMIE A BIOCHEMIE AV CR V.V.I., priority 2021, published 2025)
